Experimental data as given in patent publication US20100173995A1, “Use of PPAR-alpha activator as inflammatory skin disease-treating agent and method for treating skin diseases using the same” (Neopharm Co., Ltd., priority 2009, published 2010).

How the values were obtained:
[1] = test system: guinea pigs; assay: Skin sensitization test using guinea pigs; type: in vivo, guinea pig
Experimental: (§1) In order to evaluate the safety of the PPAR-α activator compound according to the present invention for application as a skin external preparation, an animal toxicity test and a human patch test were performed.
(§2) To perform this evaluation, a single dose oral toxicity test using rats, a skin irritation test using rabbits, a skin sensitization test using guinea pigs and an ophthalmic mucous membrane irritation test using rabbits were performed as toxicity tests for PC-9S in animals. Those tests were performed based on “Toxicity Test Standards for Pharmaceutical Products” disclosed by the Korea Food & Drug Administration. Additionally, a human patch test for PC-9S was carried out on 30 subjects (average age: 24.1). […] However, when evaluating the overall results obtained from the other toxicity tests and the human patch test, it was considered that the pseudo-ceramide compound would not pose a safety problem.

[2] = test system: human skin; assay: Human patch test; type: in vivo; settings: 30 subjects
Experimental: as §1, §2

[3] = test system: rabbits; assay: Skin irritation test using rabbits; type: in vivo, rabbit
Experimental: as §1, §2

[4] = test system: rats; assay: Single dose oral toxicity test using rats; type: in vivo, rat
Experimental: as §1, §2

[5] = test system: rabbits; assay: Ophthalmic mucous membrane irritation test using rabbits; type: in vivo, rabbit
Experimental: as §1, §2

CCCCCCCCCCCCCCCCCC(=O)C(CCCCCCCCCCCCCCCC)C(=O)NCCO (stereo not drawn) [PC-9S]
Skin sensitization test using guinea pigs result [1]: No irritation | Human patch test result ([2]; 1% PC-9S): No irritation | Human patch test result ([2]; 10% PC-9S): No irritation | Skin irritation test using rabbits result [3]: slight skin irritation | Single dose oral toxicity test (toxicity test) result [4]: No irritation | Ophthalmic mucous membrane irritation test using rabbits result [5]: No irritation
